Experimental data reported in US9012611B2, “Use of 3,8,12,14, 17,20-oxo-substituted pregnene glycosides in the preparation of healthcare products, food additives and pharmaceuticals for the inhibition of appetite” (Institute of Materia Medica, Chinese Academy of Sciences, priority 2010, dated 2015).

How the values were obtained:
[1] = tested on: female Wistar rat; test: Animal test in vivo: average food consumption (appetite inhibition); conditions: for Average food consumptions: positive control 15 mg/kg; for average food consumptions compared with the blank control group (in words): during the administration of the drugs, pure glycosides 50 mg/kg
Description: (§1) 6-7 weeks-old female Wistar rat (purchased from Shanghai Laboratory Animal Center of Chinese Academy of Sciences)(weight: 110-150 g) was raised alone in suspended metal cage. After the experimental rat was obtained, it was checked to make sure whether they were abnormal or had obvious disease signs. The rat can freely obtain the drinking-water and feed for rodent (RM1(E)AQC). The feeding cage was controlled to receive 12 h illumination (from 07:00 to 19:00) and to be in a dark environment for 12 h, and the room temperature and relative humidity were controlled to be 21±3° C. and 55±15% respectively and not to deviate the upper and lower limit. The rats were randomly divided into groups depending on the body weight according to random number table to make the average weight in each group are approximately equal. Before the test, the rats were pre-trained suitably for one week (from −7th day to −1st day) during which the consumptions of feed and drinking water were recorded.
(§2) Each group of drug to be tested, positive control group, and blank control group consisted of 5 rats, respectively. The tested drug and positive control drug were mixed with wheaten starch before the administration and formulated to suspension with required doses according to 10 mL/kg of administration volume. The positive control drug was sibutramine hydrochloride and the administration dosage was 15 mg/kg body weight. In the blank control group, only equal amount of starch was used to formulate suspension for administration by […] in a same volume. The administration time is the 1st day, 2nd day and 3rd day. The body weight of the rat, the consumption of the feed (the weight of the feeding hopper) and consumption of the drinking water (bottle weight) were recorded from the −7th day to the 7th day.

[2] = Animal test in vivo: average body weight; set-up: species or system rat; conditions: for Average body weight: positive control 15 mg/kg; for body weight compared with the blank control group (in words): during the administration of the drugs, pure glycosides 50 mg/kg
Description: as §1, §2

## CO[C@H]1C[C@H](O[C@H]2[C@@H](OC)C[C@H](O[C@H]3CC[C@@]4(C)C(=CC[C@]5(O)[C@@H]4C[C@@H](OC(=O)/C=C/c4ccccc4)[C@@]4(C)[C@]5(O)CC[C@@]4(O)C(C)=O)C3)O[C@@H]2C)O[C@@H](C)[C@H]1O[C@H]1C[C@H](OC)[C@H](O[C@H]2C[C@@H](OC)[C@@H](O)[C@H](C)O2)[C@@H](C)O1 [Wilfoside K1N, wilfoside K1N]
[1]; 1st day (administration day), Table 4, wilfosides 50 mg/kg
  Average food consumptions: 2.8 g
[1]; 2nd day (administration day), Table 4, wilfosides 50 mg/kg
  Average food consumptions: 6.4 g
[1]; 3rd day (administration day), Table 4, wilfosides 50 mg/kg
  Average food consumptions: 2.8 g
[1]; 4th day (after administration on days 1-3), Table 4, wilfosides 50 mg/kg
  Average food consumptions: 8.4 g
[1]; 5th day (after administration on days 1-3), Table 4, wilfosides 50 mg/kg
  Average food consumptions: 9.2 g
[1]; 6th day (after administration on days 1-3), Table 4, wilfosides 50 mg/kg
  Average food consumptions: 13.6 g
[1]; 7th day (after administration on days 1-3), Table 4, wilfosides 50 mg/kg
  Average food consumptions: 14.8 g
[1]; crude extract 300 mg/kg
  average food consumptions compared with the blank control group (in words): greatly different from those in the blank group
[1]; −1st day (before administration), Table 4, wilfosides 50 mg/kg
  Average food consumptions: 13.2 g
[1]; −2nd day (before administration), Table 4, wilfosides 50 mg/kg
  Average food consumptions: 13.6 g
[1]; −3rd day (before administration), Table 4, wilfosides 50 mg/kg
  Average food consumptions: 13.2 g
[1]; −4th day (before administration), Table 4, wilfosides 50 mg/kg
  Average food consumptions: 14.4 g
[1]; −5th day (before administration), Table 4, wilfosides 50 mg/kg
  Average food consumptions: 14.8 g
[1]; −6th day (before administration), Table 4, wilfosides 50 mg/kg
  Average food consumptions: 10.8 g
[1]; −7th day (before administration), Table 4, wilfosides 50 mg/kg
  Average food consumptions: 7.6 g
[2]; 1st day (administration day), Table 6, wilfosides 50 mg/kg
  Average body weight: 136.4 g
[2]; 2nd day (administration day), Table 6, wilfosides 50 mg/kg
  Average body weight: 134.4 g
[2]; 3rd day (administration day), Table 6, wilfosides 50 mg/kg
  Average body weight: 130.4 g
[2]; 4th day (after administration on days 1-3), Table 6, wilfosides 50 mg/kg
  Average body weight: 134.2 g
[2]; 5th day (after administration on days 1-3), Table 6, wilfosides 50 mg/kg
  Average body weight: 136.8 g
[2]; 6th day (after administration on days 1-3), Table 6, wilfosides 50 mg/kg
  Average body weight: 139.2 g
[2]; 7th day (after administration on days 1-3), Table 6, wilfosides 50 mg/kg
  Average body weight: 144 g
[2]; crude extract 300 mg/kg
  body weight compared with the blank control group (in words): greatly different from those in the blank group
[2]; −1st day (before administration), Table 6, wilfosides 50 mg/kg
  Average body weight: 148.8 g
[2]; −2nd day (before administration), Table 6, wilfosides 50 mg/kg
  Average body weight: 146.4 g
[2]; −3rd day (before administration), Table 6, wilfosides 50 mg/kg
  Average body weight: 143.6 g
[2]; −4th day (before administration), Table 6, wilfosides 50 mg/kg
  Average body weight: 141.6 g
[2]; −5th day (before administration), Table 6, wilfosides 50 mg/kg
  Average body weight: 140 g
[2]; −6th day (before administration), Table 6, wilfosides 50 mg/kg
  Average body weight: 137.6 g
[2]; −7th day (before administration), Table 6, wilfosides 50 mg/kg
  Average body weight: 134.8 g

## CO[C@H]1C[C@H](O[C@H]2[C@@H](OC)C[C@H](O[C@H]3CC[C@@]4(C)C(=CC[C@]5(O)[C@@H]4C[C@@H](OC(=O)/C=C/c4ccccc4)[C@@]4(C)[C@]5(O)CC[C@@]4(O)C(C)=O)C3)O[C@@H]2C)O[C@@H](C)[C@H]1O[C@H]1C[C@H](OC)[C@H](O[C@H]2C[C@@H](OC)[C@@H](O[C@@H]3O[C@H](CO)[C@@H](O)[C@H](O)[C@H]3O)[C@H](C)O2)[C@@H](C)O1 [Cynauricuoside A, cynauricuoside A]
[1]; 1st day (administration day), Table 1, crude extract 300 mg/kg, others 50 mg/kg
  Average food consumptions: 9.2 g
[1]; 2nd day (administration day), Table 1, crude extract 300 mg/kg, others 50 mg/kg
  Average food consumptions: 10.8 g
[1]; 3rd day (administration day), Table 1, crude extract 300 mg/kg, others 50 mg/kg
  Average food consumptions: 9.2 g
[1]; 4th day (after administration on days 1-3), Table 1, crude extract 300 mg/kg, others 50 mg/kg
  Average food consumptions: 15.2 g
[1]; 5th day (after administration on days 1-3), Table 1, crude extract 300 mg/kg, others 50 mg/kg
  Average food consumptions: 13.6 g
[1]; 6th day (after administration on days 1-3), Table 1, crude extract 300 mg/kg, others 50 mg/kg
  Average food consumptions: 13.2 g
[1]; 7th day (after administration on days 1-3), Table 1, crude extract 300 mg/kg, others 50 mg/kg
  Average food consumptions: 13.6 g
[1]; crude extract 300 mg/kg
  average food consumptions compared with the blank control group (in words): greatly less than those in the blank control group
[1]; −1st day (before administration), Table 1, crude extract 300 mg/kg, others 50 mg/kg
  Average food consumptions: 12.4 g
[1]; −2nd day (before administration), Table 1, crude extract 300 mg/kg, others 50 mg/kg
  Average food consumptions: 14.4 g
[1]; −3rd day (before administration), Table 1, crude extract 300 mg/kg, others 50 mg/kg
  Average food consumptions: 13.6 g
[1]; −4th day (before administration), Table 1, crude extract 300 mg/kg, others 50 mg/kg
  Average food consumptions: 14 g
[1]; −5th day (before administration), Table 1, crude extract 300 mg/kg, others 50 mg/kg
  Average food consumptions: 13.6 g
[1]; −6th day (before administration), Table 1, crude extract 300 mg/kg, others 50 mg/kg
  Average food consumptions: 11.2 g
[1]; −7th day (before administration), Table 1, crude extract 300 mg/kg, others 50 mg/kg
  Average food consumptions: 14 g
[2]; 1st day (administration day), Table 3, crude extract 300 mg/kg, others 50 mg/kg
  Average body weight: 158.8 g
[2]; 2nd day (administration day), Table 3, crude extract 300 mg/kg, others 50 mg/kg
  Average body weight: 156.4 g
[2]; 3rd day (administration day), Table 3, crude extract 300 mg/kg, others 50 mg/kg
  Average body weight: 153.6 g
[2]; 4th day (after administration on days 1-3), Table 3, crude extract 300 mg/kg, others 50 mg/kg
  Average body weight: 156.8 g
[2]; 5th day (after administration on days 1-3), Table 3, crude extract 300 mg/kg, others 50 mg/kg
  Average body weight: 158.4 g
[2]; 6th day (after administration on days 1-3), Table 3, crude extract 300 mg/kg, others 50 mg/kg
  Average body weight: 164.4 g
[2]; 7th day (after administration on days 1-3), Table 3, crude extract 300 mg/kg, others 50 mg/kg
  Average body weight: 166.8 g
[2]; crude extract 300 mg/kg
  body weight compared with the blank control group (in words): the tendency of body weight change was greatly different
[2]; −1st day (before administration), Table 3, crude extract 300 mg/kg, others 50 mg/kg
  Average body weight: 163.6 g
[2]; −2nd day (before administration), Table 3, crude extract 300 mg/kg, others 50 mg/kg
  Average body weight: 160.4 g
[2]; −3rd day (before administration), Table 3, crude extract 300 mg/kg, others 50 mg/kg
  Average body weight: 158 g
[2]; −4th day (before administration), Table 3, crude extract 300 mg/kg, others 50 mg/kg
  Average body weight: 156 g
[2]; −5th day (before administration), Table 3, crude extract 300 mg/kg, others 50 mg/kg
  Average body weight: 154.4 g
[2]; −6th day (before administration), Table 3, crude extract 300 mg/kg, others 50 mg/kg
  Average body weight: 152.8 g
[2]; −7th day (before administration), Table 3, crude extract 300 mg/kg, others 50 mg/kg
  Average body weight: 150 g
